Measured values: patent publication US20050261332A1, “Sulfonamides and uses thereof” (priority 2004, published 2005)

Molecular target: T1, GHS-R (Homo sapiens, UniProt Q92847)
T1 construct: expressed in transfected cells; host or cells: COS-7 cells
Assay: GHS-R competition binding assay (Ki of GHS-R antagonizing compounds)
Method: One exemplary binding assay is as follows: GHS-R expressing COS-7 cells cultured at a density of 1×10^5 cells per well so that binding is assayed in the range of about 5-8 % binding of the radioactive ligand. For example, the cells can express an endogenous nucleic acid encoding GHS-R or an exogenous nucleic acid encoding GHS-R. Cells transfected with an exogenous nucleic acid encoding GHS-R can be used, e.g., two days, after transfection. Competition binding experiments are performed for 3 hours at 4° C. using 25 pM of ^125I-ghrelin in 0.5 ml of 50 mM HEPES buffer, pH 7.4, supplemented with 1 mM CaCl2, 5 mM MgCl2, and 0.1% (w/v) bovine serum albumin, 40 mg/ml bacitracin. Non-specific binding can be determined as the binding in the presence of […] of unlabeled ghrelin. Cells are washed twice in 0.5 ml of ice-cold buffer and then lysed with 0.5-1 ml of lysis buffer (8 M Urea, 2% NP40 in 3 M acetic acid). After washing and lysis, the bound radioactivity is counted. Assays can be run in duplicate or triplicate, e.g., to provide statistical power.
Values of the dissociation and inhibition constants (Kd and Ki) can be estimated from competition binding experiments using the equation: Kd=IC50-L and Ki=IC50/(1+L/Kd), where L is the concentration of radioactive ligand. Bmax values can be estimated from competition binding experiments using the equation Bmax=B0 IC50/[ligand], where B0 is the specifically bound radioligand.

T1 sequence (Q92847 whole entry, species assumed): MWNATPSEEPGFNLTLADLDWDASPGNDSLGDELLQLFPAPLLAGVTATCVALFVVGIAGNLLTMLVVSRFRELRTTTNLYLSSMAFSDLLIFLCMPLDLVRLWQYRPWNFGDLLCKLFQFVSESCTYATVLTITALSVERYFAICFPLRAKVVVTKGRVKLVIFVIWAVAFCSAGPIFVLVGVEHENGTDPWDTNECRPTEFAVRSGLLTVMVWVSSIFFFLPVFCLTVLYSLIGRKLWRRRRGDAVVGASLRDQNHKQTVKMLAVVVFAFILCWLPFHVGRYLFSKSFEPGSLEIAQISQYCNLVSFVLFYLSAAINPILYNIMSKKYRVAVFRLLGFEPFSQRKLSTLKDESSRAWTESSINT

Row | Ki [nM] | SMILES
1 | < 100 | CN1CCC(S(=O)(=O)N[C@H](COCc2ccccc2)C(=O)N2CCC3(CC2)CN(S(C)(=O)=O)c2ccccc23)CC1 [Compound 137, (R)-N-(3-(benzyloxy)-1-(1-(methylsulfonyl)spiro[indoline-3,4′-piperidine]-1′-yl)-1-oxopropan-2-yl)-1-methylpiperidine-4-sulfonamide]
2 | < 100 | CCN(CC)CCS(=O)(=O)N[C@H](COCc1ccccc1)C(=O)N1CCC2(CC1)CN(S(C)(=O)=O)c1ccccc12 [Compound 132, (R)-N-(3-(benzyloxy)-1-(1-(methylsulfonyl)spiro[indoline-3,4′-piperidine]-1′-yl)-1-oxopropan-2-yl)-2-(diethylamino)ethanesulfonamide]
3 | 100 to 1000 | CCN(CC)CCCS(=O)(=O)N[C@H](CCc1ccccc1)C(=O)NCc1ccc(-c2ccccc2-c2nn[nH]n2)cc1 [Compound 161, (R)-N-((2′-(2H-tetrazol-5-yl)biphenyl-4-yl)methyl)-2-(3-(diethylamino)propylsulfonamido)-4-phenylbutanamide]
4 | < 100 | CCN(CC)CCS(=O)(=O)N[C@H](CCc1ccccc1)C(=O)c1ccc(-c2ccccc2CNC(=O)NC)cc1 [Compound 209, (R)-2-(diethylamino)-N-(1-(2′-((3-methylureido)methyl)biphenyl-4-yl)-1-oxo-4-phenylbutan-2-yl)ethanesulfonamide]
5 | > 1000 | CCOC(=O)c1ccccc1-c1ccc(C(=O)[C@@H](CCc2ccccc2)NS(=O)(=O)CCCN(CC)CC)cc1 [Compound 184, (R)-ethyl 4′-(2-(3-(diethylamino)propylsulfonamido)-4-phenylbutanoyl)biphenyl-2-carboxylate]
6 | 100 to 1000 | CCN(CC)CCCS(=O)(=O)N[C@H](CCc1ccccc1)C(=O)NCc1ccc(-c2ccccc2CNC(=O)NC)cc1 [Compound 187, (R)-2-(3-(diethylamino)propylsulfonamido)-N-((2′-((3-methylureido)methyl)biphenyl-4-yl)methyl)-4-phenylbutanamide]
7 | > 1000 | CCN(CC)CCS(=O)(=O)N[C@H](CCc1ccccc1)C(=O)c1ccc(-c2ccccc2COC(=O)NC)cc1 [Compound 215, (R)-(4′-(2-(2-(diethylamino)ethylsulfonamido)-4-phenylbutanoyl)biphenyl-2-yl)methyl methylcarbamate]
8 | 100 to 1000 | CCN(CC)CCCS(=O)(=O)N[C@H](CCc1ccccc1)C(=O)NCc1ccc(-c2ccccc2NC(=O)NC)cc1 [Compound 200, (R)-2-(3-(diethylamino)propylsulfonamido)-N-((2′-(3-methylureido)biphenyl-4-yl)methyl)-4-phenylbutanamide]
9 | < 100 | CCN(CC)CCCS(=O)(=O)N[C@H](COCc1ccccc1)C(=O)NCc1ccc(-c2ccccc2-c2noc(=S)[nH]2)cc1 [Compound 162, (R)-3-Benzyloxy-2-(3-diethylamino-propane-1-sulfonylamino)-N-[2′-(5-thioxo-4,5-dihydro-[1,2,4]oxadiazol-3-yl)-biphenyl-4-ylmethyl]-propionamide]
10 | < 100 | CS(=O)(=O)N1CC2(CCN(C(=O)[C@@H](COCc3ccccc3)NS(=O)(=O)CCCN3CCCC3)CC2)c2ccccc21 [Compound 152, (R)-N-(3-(benzyloxy)-1-(1-(methylsulfonyl)spiro[indoline-3,4′-piperidine]-1′-yl)-1-oxopropan-2-yl)-3-(pyrrolidin-1-yl)propane-1-sulfonamide]
11 | > 1000 | CN1C2CCC1CC(S(=O)(=O)N[C@H](COCc1ccccc1)C(=O)N1CCC3(CC1)CN(S(C)(=O)=O)c1ccccc13)C2 (stereo partly drawn) [Compound 145, N-((R)-3-(benzyloxy)-1-(1-(methylsulfonyl)spiro[indoline-3,4′-piperidine]-1′-yl)-1-oxopropan-2-yl)-8-methyl-8-azabicyclo[3.2.1]octane-3-sulfonamide]
12 | < 100 | CCN(CC)CCCS(=O)(=O)N[C@H](COCc1ccccc1)C(=O)NCc1ccc(-c2ccccc2C#N)cc1 [Compound 158, (R)-3-Benzyloxy-N-(2′-cyano-biphenyl-4-ylmethyl)-2-(3-diethylamino-propane-1-sulfonylamino)-propionamide]
13 | > 1000 | CS(=O)(=O)N1CC2(CCN(C(=O)[C@@H](COCc3ccccc3)NS(=O)(=O)CCCN3CCOCC3)CC2)c2ccccc21 [Compound 142, (R)-N-(3-(benzyloxy)-1-(1-(methylsulfonyl)spiro[indoline-3,4′-piperidine]-1′-yl)-1-oxopropan-2-yl)-3-morpholinopropane-1-sulfonamide]
14 | 100 to 1000 | CCN(CC)CCCS(=O)(=O)N[C@H](COCc1ccccc1)C(=O)c1ccc(-c2ccccc2C#N)cc1 [Compound 178, (R)-N-(3-(benzyloxy)-1-(2′-cyanobiphenyl-4-yl)-1-oxopropan-2-yl)-3-(diethylamino)propane-1-sulfonamide]
15 | 100 to 1000 | CCN(CC)CCCS(=O)(=O)N[C@H](COCc1ccccc1)C(=O)NCc1ccc(-c2ccccc2-c2noc(=O)[nH]2)cc1 [Compound 164, (R)-3-Benzyloxy-2-(3-diethylamino-propane-1-sulfonylamino)-N-[2′-(5-oxo-4,5-dihydro-[1,2,4]oxadiazol-3-yl)-biphenyl-4-ylmethyl]-propionamide]
16 | < 100 | CCN(CC)CCCS(=O)(=O)N[C@H](CCc1ccccc1)C(=O)NCc1ccc(-c2ccccc2C(N)=O)cc1 [Compound 189, (R)-4′-{[2-(3-Diethylamino-propane-1-sulfonylamino)-4-phenyl-butyrylamino]-methyl}-biphenyl-2-carboxylic acid amide]
17 | < 100 | CCN(CC)CCS(=O)(=O)N[C@H](CCc1ccccc1)C(=O)c1ccc(-c2ccccc2CNC(C)=O)cc1 [Compound 204, (R)-N-((4′-(2-(2-(diethylamino)ethylsulfonamido)-4-phenylbutanoyl)biphenyl-2-yl)methyl)acetamide]
18 | 100 to 1000 | CCN(CC)CCCS(=O)(=O)N[C@H](COCc1ccccc1)C(=O)NCc1ccc(-c2ccccc2-c2nn[nH]n2)cc1 [Compound 156, (R)-3-Benzyloxy-2-(3-diethylamino-propane-1-sulfonylamino)-N-[2′-(2H-tetrazol-5-yl)-biphenyl-4-ylmethyl]-propionamide]
19 | < 100 | CCN(CC)CCCS(=O)(=O)N[C@H](CCc1ccccc1)C(=O)c1ccc(-c2ccccc2CNC(C)=O)cc1 [Compound 192, (R)-N-((4′-(2-(3-(diethylamino)propylsulfonamido)-4-phenylbutanoyl)biphenyl-2-yl)methyl)acetamide]
20 | 100 to 1000 | CCN(CC)CCCS(=O)(=O)N[C@H](COCc1ccccc1)C(=O)c1ccc(-c2ccccc2NC(=O)NC)cc1 [Compound 176, (R)-N-(3-(benzyloxy)-1-(2′-(3-methylureido)biphenyl-4-yl)-1-oxopropan-2-yl)-3-(diethylamino)propane-1-sulfonamide]
21 | 100 to 1000 | COCCCS(=O)(=O)N[C@H](COCc1ccccc1)C(=O)N1CCC2(CC1)CN(S(C)(=O)=O)c1ccccc12 [Compound 159, (R)-N-(3-(benzyloxy)-1-(1-(methylsulfonyl)spiro[indoline-3,4′-piperidine]-1′-yl)-1-oxopropan-2-yl)-3-methoxypropane-1-sulfonamide]
22 | < 100 | CCN(CC)CCCS(=O)(=O)N[C@H](CCc1ccccc1)C(=O)c1ccc(-c2ccccc2CCNC(=O)NC)cc1 [Compound 185, (R)-3-(diethylamino)-N-(1-(2′-(2-(3-methylureido)ethyl)biphenyl-4-yl)-1-oxo-4-phenylbutan-2-yl)propane-1-sulfonamide]
23 | 100 to 1000 | CCN(CC)CCCS(=O)(=O)N[C@H](CCc1ccccc1)C(=O)c1ccc(-c2ccccc2NC(=O)NC)cc1 [Compound 171, (R)-3-(diethylamino)-N-(1-(2′-(3-methylureido)biphenyl-4-yl)-1-oxo-4-phenylbutan-2-yl)propane-1-sulfonamide]
24 | 100 to 1000 | CCNC(=O)Nc1ccccc1-c1ccc(C(=O)[C@@H](CCc2ccccc2)NS(=O)(=O)CCCN(CC)CC)cc1 [Compound 172, (R)-3-(diethylamino)-N-(1-(2′-(3-ethylureido)biphenyl-4-yl)-1-oxo-4-phenylbutan-2-yl)propane-1-sulfonamide]
25 | > 1000 | CCN(CC)CCS(=O)(=O)N[C@H](CCc1ccccc1)C(=O)c1ccc(-c2ccccc2C(N)=O)cc1 [Compound 218, (R)-4′-(2-(2-(diethylamino)ethylsulfonamido)-4-phenylbutanoyl)biphenyl-2-carboxamide]
26 | < 100 | CC(C)NCCCS(=O)(=O)N[C@H](COCc1ccccc1)C(=O)N1CCC2(CC1)CN(S(C)(=O)=O)c1ccccc12 [Compound 141, (R)-N-(3-(benzyloxy)-1-(1-(methylsulfonyl)spiro[indoline-3,4′-piperidine]-1′-yl)-1-oxopropan-2-yl)-3-(isopropylamino)propane-1-sulfonamide]

Row | SMILES | Ki [nM]
27 | CS(=O)(=O)N1CC2(CCN(C(=O)[C@@H](COCc3ccccc3)NS(=O)(=O)CCN3CCCC3)CC2)c2ccccc21 [Compound 136, (R)-N-(3-(benzyloxy)-1-(1-(methylsulfonyl)spiro[indoline-3,4′-piperidine]-1′-yl)-1-oxopropan-2-yl)-2-(pyrrolidin-1-yl)ethanesulfonamide] | 100 to 1000
